From patent US9527807B2, “Sulfonamide derivative and use thereof” (Takeda Pharmaceutical Company Limited, priority 2011, dated 2016)

What was measured:
[1] = system: MAP-induced hyperlocomotion in mice; experiment: Inhibition of methamphetamine (MAP)-induced hyperlocomotion; format: in vivo; settings: male ICR mice; compound 10 mg/kg p.o. 60 min before MAP 2 mg/kg s.c.; counts 0-120 min after MAP; Welch's t-test; FIG. 1
Protocol: Male ICR mice were supplied by CLEA Japan, Inc (Japan). After arrival to the vivarium, animals were allowed a minimum of 1 week for acclimation. They were housed under a 12:12-h light/dark cycle in a temperature- and humidity-controlled laboratory and allowed food and water ad libitum.
A test compound was suspended in 0.5% methylcellulose in distilled water and orally administered (p.o.). Methamphetamine (Dainippon Sumitomo Pharma Co., Ltd.) was dissolved in saline and subcutaneously administered (s.c.). All drugs were dosed in a volume of 10 mL/kg body weight for mice.
The widely used animal models of psychosis have been the measurement of the extent of hyperlocomotion induced by psychostimulants (e.g., amphetamine, cocaine, methamphetamine, MK-801 and phencyclidine) in rodents (Psychopharmacology 1999, vol. 145: 237-250). 2 compounds (A and B) were tested for its ability to antagonize MAP-induced hyperlocomotion in mice. Male ICR mice were habituated in the locomotor chambers with infrared sensors (BrainScienceIdea Co., Ltd. Japan) to the experiment. […] Locomotion activities were measured, and accumulated counts (120 min after administration of MAP) were calculated in each treatment group. All data were represented as means plus the standard errors of the means (n=3-8) and analyzed using Welch's t-test with significance set at ^$P<0.05, ^$$P<0.01 and ^$$$P<0.001. […]

[2] = system: methamphetamine (MAP)-induced hyperlocomotion; experiment: methamphetamine (MAP)-induced hyperlocomotion; format: in vivo; settings: FIG. 1
[3] = target: T1, AMPA receptor (human GluR1 flip/stargazin expressed in CHO-K1 cells) (Homo sapiens, UniProt P42261); experiment: AMPA receptor function enhancing activity using calcium influx as index; format: cell-based; settings: change in fluorescence level in 3 min, 100% = 3 mM glutamic acid + 300 μM cyclothiazide, 0% = 3 mM glutamic acid only
T1 construct: expressed in transfected cells; host or cells: CHO-K1
Procedure, shortened: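 CHO-K1 cells co-expressing human GluR1 flip and stargazin, Calcium 4 dye with 1.25 mM probenecid; compound added with glutamate (3 mM final), fluorescence change over 3 min. Activity (%) scaled between 3 mM glutamate alone (0%) and glutamate plus 300 μM cyclothiazide (100%).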

T1 sequence (P42261 19-906 isoform P42261-2 limits assumed): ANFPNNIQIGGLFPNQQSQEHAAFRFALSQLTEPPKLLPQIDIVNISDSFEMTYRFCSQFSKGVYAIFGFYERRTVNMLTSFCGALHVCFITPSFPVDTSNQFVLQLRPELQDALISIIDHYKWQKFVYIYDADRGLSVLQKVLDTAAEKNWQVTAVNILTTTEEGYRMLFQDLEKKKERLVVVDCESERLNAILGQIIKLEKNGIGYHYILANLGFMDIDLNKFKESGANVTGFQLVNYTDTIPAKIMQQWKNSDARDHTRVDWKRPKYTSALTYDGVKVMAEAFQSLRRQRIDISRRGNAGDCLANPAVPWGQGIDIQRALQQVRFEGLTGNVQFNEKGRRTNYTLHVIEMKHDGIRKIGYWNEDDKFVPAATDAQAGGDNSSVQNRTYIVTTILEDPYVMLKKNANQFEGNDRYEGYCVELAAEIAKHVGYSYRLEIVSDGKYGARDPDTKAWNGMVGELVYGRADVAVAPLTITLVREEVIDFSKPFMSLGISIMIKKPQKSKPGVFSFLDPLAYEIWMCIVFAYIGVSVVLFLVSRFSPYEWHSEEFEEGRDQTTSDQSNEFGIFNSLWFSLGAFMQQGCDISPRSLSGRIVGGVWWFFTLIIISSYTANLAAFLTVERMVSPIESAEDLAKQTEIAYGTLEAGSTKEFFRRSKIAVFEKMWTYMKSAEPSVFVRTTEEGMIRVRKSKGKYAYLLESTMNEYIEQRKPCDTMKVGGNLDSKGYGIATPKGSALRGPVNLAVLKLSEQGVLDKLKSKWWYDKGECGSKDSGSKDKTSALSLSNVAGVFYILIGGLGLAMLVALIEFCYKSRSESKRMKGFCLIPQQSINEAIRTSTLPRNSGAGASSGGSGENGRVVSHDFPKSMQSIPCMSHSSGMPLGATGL
T1 sequence (Q9Y698 whole entry partner): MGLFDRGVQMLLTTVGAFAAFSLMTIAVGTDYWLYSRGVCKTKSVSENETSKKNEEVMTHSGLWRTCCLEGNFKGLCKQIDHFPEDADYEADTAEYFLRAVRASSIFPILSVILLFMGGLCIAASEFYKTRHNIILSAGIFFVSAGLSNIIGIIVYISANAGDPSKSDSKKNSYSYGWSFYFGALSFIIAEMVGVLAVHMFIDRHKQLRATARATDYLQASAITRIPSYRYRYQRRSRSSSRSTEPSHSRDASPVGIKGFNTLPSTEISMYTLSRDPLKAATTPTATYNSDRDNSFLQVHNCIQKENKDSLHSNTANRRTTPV

Structure (SMILES) | inhibition of MAP-induced hyperlocomotion (accumulated locomotion counts) [1] | inhibition of methamphetamine (MAP)-induced hyperlocomotion [2] | activity (%) [3] [%]
CS(=O)(=O)N[C@H]1CCOC[C@@H]1COc1ccc(-n2cc(Cl)cn2)cc1 [compound A, N-[(3R,4S)-3-{[4-(4-chloro-1H-pyrazol-1-yl)phenoxy]methyl}tetrahydro-2H-pyran-4-yl]methanesulfonamide] | significant inhibition | inhibition | –
CCS(=O)(=O)N[C@H]1CCOC[C@@H]1COc1ccc(-n2cc(Cl)cn2)cc1F [compound B, N-[(3R,4S)-3-{[4-(4-chloro-1H-pyrazol-1-yl)-2-fluorophenoxy]methyl}tetrahydro-2H-pyran-4-yl]ethanesulfonamide] | significant inhibition | inhibition | –
CCS(=O)(=O)N[C@H]1CCN(C(C)=O)C[C@@H]1COc1ccc(C(C)C)cc1 (single isomer, unassigned) [Example 94, trans-N-[1-acetyl-3-{[4-(1-methylethyl)phenoxy]methyl}piperidin-4-yl]ethanesulfonamide] | – | – | 70
CN(C)S(=O)(=O)N[C@H]1CCOC[C@@H]1COc1ccc(-n2cc(Cl)cn2)cc1 (racemic) [Example 279, N′-[(3RS,4SR)-3-{[4-(4-chloro-1H-pyrazol-1-yl)phenoxy]methyl}tetrahydro-2H-pyran-4-yl]-N,N-dimethylsulfamide] | – | – | 79
CCS(=O)(=O)N[C@H]1CCC(F)(F)C[C@@H]1COc1ccc(-n2ccc(C)n2)cc1 (relative stereo) [Example 142, trans-N-[4,4-difluoro-2-{[4-(3-methyl-1H-pyrazol-1-yl)phenoxy]methyl}cyclohexyl]ethanesulfonamide] | – | – | 54
O=S(=O)(N[C@H]1CCOC[C@@H]1COc1ccc(-c2ncc(Cl)cc2F)cc1)C1CC1 [Example 256, N-[(3R,4S)-3-{[4-(5-chloro-3-fluoropyridin-2-yl)phenoxy]methyl}tetrahydro-2H-pyran-4-yl]cyclopropanesulfonamide] | – | – | 91
CS(=O)(=O)N[C@@H]1CCOC[C@H]1COc1ccc(-c2ccc(Cl)cn2)cc1F (single isomer, unassigned) [Example 266, N-[(3S,4R)-3-{[4-(5-chloropyridin-2-yl)-2-fluorophenoxy]methyl}tetrahydro-2H-pyran-4-yl]methanesulfonamide or N-[(3R,4S)-3-{[4-(5-chloropyridin-2-yl)-2-fluorophenoxy]methyl}tetrahydro-2H-pyran-4-yl]methanesulfonamide] | – | – | 92
CS(=O)(=O)N[C@H]1CCOC[C@@H]1COc1ccc(-c2ccc(Cl)cn2)c(F)c1 (racemic) [Example 244, N-[(3RS,4SR)-3-{[4-(5-chloropyridin-2-yl)-3-fluorophenoxy]methyl}tetrahydro-2H-pyran-4-yl]methanesulfonamide] | – | – | 96
Cc1cc(-c2ccc(OC[C@H]3COCC[C@@H]3NS(C)(=O)=O)cc2F)no1 [Example 247, N-[(3R,4S)-3-{[3-fluoro-4-(5-methylisoxazol-3-yl)phenoxy]methyl}tetrahydro-2H-pyran-4-yl]methanesulfonamide] | – | – | 87
Cc1cnc(-c2ccc(OC[C@H]3COCC[C@@H]3NS(C)(=O)=O)cc2)s1 (racemic) [Example 333, N-[(3RS,4SR)-3-{[4-(5-methyl-1,3-thiazol-2-yl)phenoxy]methyl}tetrahydro-2H-pyran-4-yl]methanesulfonamide] | – | – | 93
Cc1nc(-c2ccc(OC[C@H]3COCC[C@@H]3NS(C)(=O)=O)cc2)cs1 (racemic) [Example 263, N-[(3RS,4SR)-3-{[4-(2-methyl-1,3-thiazol-4-yl)phenoxy]methyl}tetrahydro-2H-pyran-4-yl]methanesulfonamide] | – | – | 66
CCS(=O)(=O)N[C@H]1CCN(C(C)=O)C[C@@H]1COc1ccc(-n2cccn2)cc1 (relative stereo) [Example 3, trans-N-[1-acetyl-3-{[4-(1H-pyrazol-1-yl)phenoxy]methyl}piperidin-4-yl]ethanesulfonamide] | – | – | 57
CCS(=O)(=O)N[C@H]1CCOC[C@@H]1COc1ccc(-c2ccc(C#N)cn2)cc1 [Example 297, N-[(3R,4S)-3-{[4-(5-cyanopyridin-2-yl)phenoxy]methyl}tetrahydro-2H-pyran-4-yl]ethanesulfonamide] | – | – | 95
CCS(=O)(=O)N[C@H]1CCOC[C@@H]1COc1ccc(-c2ccc(C(F)(F)F)cn2)cc1 (racemic) [Example 351, N-[(3RS,4SR)-3-({4-[5-(trifluoromethyl)pyridin-2-yl]phenoxy}methyl)tetrahydro-2H-pyran-4-yl]ethanesulfonamide rac] | – | – | 70
CCS(=O)(=O)N[C@H]1COCC[C@@H]1COc1ccc(C(C)C)cc1 (relative stereo) [Example 95, trans-N-[4-{[4-(1-methylethyl)phenoxy]methyl}tetrahydro-2H-pyran-3-yl]ethanesulfonamide] | – | – | 73
CS(=O)(=O)N[C@H]1CCOC[C@@H]1COc1ccc(-n2cc(Cl)cn2)cc1 (racemic) [Example 270, N-[(3RS,4SR)-3-{[4-(4-chloro-1H-pyrazol-1-yl)phenoxy]methyl}tetrahydro-2H-pyran-4-yl]methanesulfonamide] | – | – | 74
